According to PMC8107365, “Overlapping Properties of the Short Membrane-Active Peptide BP100 With (i) Polycationic TAT and (ii) α-helical Magainin Family Peptides” (Frontiers in Cellular and Infection Microbiology, 2021):
In brackets after ≈: the same amount, converted by molar mass. Several values for one entry are separate records, joined by “and”; a condition that tells them apart may be missing. Identical values can stand only once. Like-named read-outs stand apart in the source and are kept apart here. Marks after values point to notes of the source that are not given here. Where a SMILES comes first, the peptide text is derived from it.

Key:
[1] = ref Thorén et al., 2005; cited from earlier work
Source text: Another kind of action of membrane-bound peptides is to facilitate fusion between membranes of vesicles or cells. We find here that BP100 has strong fusogenic activity ( Figure 4 ), even higher than the dedicated fusion peptide, FP23 from HIV-1, except in uncharged POPC/CHOL. […] These fusion results fit well with a previous comparison of different AMPs and CPPs ([Wadhwani et al., 2012b]). Obvio ...

HeLa cells = experiment: Toxicity against HeLa cells (calcein AM, fluorescence microscopy); type: cell-based, human; conditions: for Toxicity (HeLa): overview Figure 5; for HeLa cells: lowest tested concentration where dead HeLa cells were observed: peptides N-terminally labeled with Fluka 630 red, 30 min, 37°C, HKR buffer pH 7.4, calcein AM, confocal microscopy
Experimental: HeLa TK A549 cells (from DSMZ, Braunschweig, Germany) were cultivated in minimal essential medium (MEM) with 10% fetal calf serum (FCS) (PAA, Cöble, Germany), and Glutamax (Invitrogen, Karlsruhe, Germany), without antibiotics. Cell density after incubation over night was 30000 cells/chamber in 300 µL medium. For experiments, the medium was removed and cells incubated with peptides at the respective concentration in HEPES Krebs Ringer (HKR) buffer, which consists of 5 mM HEPES, 137 mM NaCl, 2.68 mM KCl, 2.05 mM MgCl2, 1.8 mM CaCl2, and 5.55 mM glucose, pH 7.4. After 30 min (37°C, 5% CO2) cells were washed with HKR buffer, and the behavior of cells at variable peptide concentration examined. A confocal microscope type SP 5 from Leica was used for fluorescence microscopy. The 488 nm line of an argon laser was used for excitation of calcein and the 633 nm line of a helium-neon laser was used for excitation of Fluka 630 red. For kinetic experiments, cells were washed after incubation for 30 minutes and placed into MEM medium at 37°C, and studied after 1, 2, 4, 8 and 24 h. Five minutes before microscopy, calcein AM (Fluka, Buchs, Switzerland) was added to a final concentration of 1 nM to examine cell viability. To avoid artifacts, cells were not fixed.

human erythrocytes = experiment: Hemolysis assay; conditions: for HC10, concentration that induced 10% hemolysis: human erythrocytes 0.25% (v/v), Tris buffer pH 7.6/DMSO, 37°C, 20 min, absorbance 540 nm, relative to Triton X-100, up to 100 µM peptide
Experimental: The hemolytic effect of the peptides was tested on human erythrocytes as previously described ([Strandberg et al., 2007]). Citrate phosphate dextrose-stabilized blood bags with erythrocyte suspensions were obtained from the blood bank of the local municipal hospital (Karlsruhe, Germany). Erythrocytes were washed twice with 9-fold excess of Tris buffer (172 mM, pH 7.6 at 0°C) followed by centrifugation at 600 g for 10 min at 4°C, and kept on ice in between. After the second wash, the erythrocytes were transferred from the sediment to a fresh tube with the same precooled buffer to be diluted to about 10% (v/v) hematocrit, giving the stock cell suspension, which was kept on ice. […] The stock cell suspension was further diluted to about 0.5% (v/v). After preincubating for 3 min, 200 μL of the resulting erythrocyte dilution was transferred to each tube of the corresponding peptide serial dilution, to a final concentration of 0.25% (v/v). For each dilution series, zero hemolysis was obtained by adding the erythrocytes to Tris buffer (pH 7.6 at 37°C)/dimethylsulfoxide (9:1 v/v) and measuring the background lysis in the absence of peptide. For 100% hemolysis, the erythrocytes were added to 0.2% of Triton X-100 (Sigma, Germany) in the same buffer, giving a final concentration of 0.1% Triton X-100. Incubation was performed at 37°C for 20 min with gentle shaking. The tubes were centrifuged at 20 000 g for 5 min to pellet the cells, and the absorbance at 540 nm was recorded against water. The percentage lysis was then calculated relative to 0% lysis with buffer and 100% lysis by Triton X-100. The absorbance measurement was repeated three times, and the averaged values are used.

[2] = test system: Kocuria rhizophila (DSM 348)
Experimental: (§1) The antimicrobial activity of BP100 was tested using a standard MIC dilution assay, as previously described ([Strandberg et al., 2007]; [Wadhwani et al., 2012a]). Two Gram-negative strains, Escherichia coli (DSM 498) (K12) and Enterobacter helveticus (DSM 18396), and one Gram-positive strain, Kocuria rhizophila (DSM 348) were used. Bacteria were grown in Luria-Bertani medium at 37°C and 230 rpm overnight, and diluted in 1% trypticase soy broth (TSB). Peptide stock solutions (1024 μg/mL) were prepared in water. Microtiter plates (96 wells of 100 μl) were filled with 50 μl of 1% TSB, and serial 2-fold dilutions of peptides were arranged in columns. The two final rows of each plate remained without peptide, so that the penultimate data point served as the positive control (no peptide) and the final one as the negative control (not inoculated). To each well (except for the final row of each plate), an aliquot of 50 µl of a bacterial suspension containing 10^6 colony-forming units/mL was added to obtain a final volume of 100 µL. Antibacterial activities are expressed as the MIC and correspond to the lowest concentration of peptide, in micromolar units, at which no bacterial growth was detected after overnight incubation at 37°C. The tests were made in triplicate for each peptide, and the value shown is the lowest concentration where at least for two repetitions the growth was inhibited.

[3] = test system: Escherichia coli (DSM 498) (K12)
Experimental: as §1

[4] = test system: Enterobacter helveticus (DSM 18396)
Experimental: as §1

tested bacteria = conditions: E. coli DSM 498, E. helveticus, K. rhizophila
Experimental: as §1

erythrocytes = conditions: ref Sabatier et al., 1991; Wang et al., 2010; cited from earlier work
Source text: Considering that Table 2 (and Figure 2 ) gives the percent of hemolysis as a function of concentration in µM, it can be noted that BP100 c ...

[5] = serial 2-fold dilution, 1% TSB, overnight 37°C, triplicate, lowest concentration inhibiting growth in at least two repetitions

Molecule	Lipid mixing, in words [1]	Toxicity (HeLa) (HeLa cells)	HeLa cells: lowest tested concentration where dead HeLa cells were observed (HeLa cells)	HC10, concentration that induced 10% hemolysis (human erythrocytes)	Hemolysis (human erythrocytes; overview Figure 5)	MIC K. rhizophila [2, 5] [µM]	MIC E. coli (DSM 498) [3, 5]	MIC E. helveticus [4, 5] [µM]	Hemolysis (human erythrocytes)	MIC K. rhizophila ([2]; DSM 348) [µM]	MIC E. coli (DSM 498) ([3]; DSM 498) [µM]	MIC E. helveticus ([4]; DSM 18396) [µM]	Hemolytic activity, in words (human erythrocytes; peptide concentrations up to 100 µM)	MIC over the three tested strains (tested bacteria)	Hemolytic activity, in words (literature) (erythrocytes)
Ac-GRKKRRQRRRPWQ-NH2 [TATP59W]	high extent of lipid mixing														
CC[C@H](C)[C@H](NC(=O)CN)C(=O)NCC(=O)N[C@@H](CCCCN)C(=O)N[C@@H](Cc1ccccc1)C(=O)N[C@@H](CC(C)C)C(=O)N[C@@H](Cc1c[nH]cn1)C(=O)N[C@@H](CO)C(=O)N[C@@H](C)C(=O)N[C@@H](CCCCN)C(=O)N[C@@H](CCCCN)C(=O)N[C@@H](Cc1ccccc1)C(=O)NCC(=O)N[C@@H](CCCCN)C(=O)N[C@@H](C)C(=O)N[C@@H](Cc1ccccc1)C(=O)N[C@H](C(=O)NCC(=O)N[C@@H](CCC(=O)O)C(=O)N[C@H](C(=O)N[C@@H](CCSC)C(=O)N[C@@H](CC(N)=O)C(=O)N[C@@H](CO)C(=O)O)[C@@H](C)CC)C(C)C [MAG2, magainin 2] (H-GIGKFLHSAKKFGKAFVGEIMNS-OH)		+	20 µM												
CC[C@H](C)[C@H](NC(=O)[C@H](C)NC(=O)CNC(=O)[C@H](C)NC(=O)[C@H](CCCCN)NC(=O)[C@H](CO)NC(=O)[C@H](C)NC(=O)[C@H](CCSC)NC(=O)CN)C(=O)N[C@@H](C)C(=O)NCC(=O)N[C@@H](CCCCN)C(=O)N[C@H](C(=O)N[C@@H](C)C(=O)N[C@@H](CCCCN)C(=O)N[C@H](C(=O)N[C@@H](C)C(=O)N[C@@H](CC(C)C)C(=O)N[C@@H](CCCCN)C(=O)N[C@@H](C)C(=O)N[C@@H](CC(C)C)C(N)=O)C(C)C)[C@@H](C)CC [PGLa] (H-GMASKAGAIAGKIAKVALKAL-NH2)		+	10 µM	16 µM	++	4.1 (≈ 8.07 µg/mL)	25 µM (≈ 49.2 µg/mL)	16.3 (≈ 32.1 µg/mL)							
CC[C@H](C)[C@H](NC(=O)[C@H](CCCCN)NC(=O)CNC(=O)[C@H](C)NC(=O)[C@@H](NC(=O)[C@H](CCCCN)NC(=O)[C@H](C)NC(=O)[C@@H](NC(=O)[C@H](CCCCN)NC(=O)CNC(=O)[C@H](C)NC(=O)[C@@H](NC(=O)[C@H](CCCCN)NC(=O)[C@H](C)NC(=O)[C@@H](NC(=O)[C@H](CCCCN)NC(=O)CNC(=O)[C@H](C)NC(=O)[C@@H](NC(=O)[C@@H](N)CCCCN)[C@@H](C)CC)[C@@H](C)CC)[C@@H](C)CC)[C@@H](C)CC)[C@@H](C)CC)C(=O)N[C@@H](C)C(N)=O [MSI-103] (H-KIAGKIAKIAGKIAKIAGKIA-NH2)		+++							++	0.8 (≈ 1.65 µg/mL)	12.5 (≈ 25.8 µg/mL)	1.6 (≈ 3.3 µg/mL)			
CC(C)C[C@H](NC(=O)[C@H](C)NC(=O)[C@H](CCCCN)NC(=O)[C@H](CC(C)C)NC(=O)[C@H](C)NC(=O)[C@H](CC(C)C)NC(=O)[C@H](CCCCN)NC(=O)[C@H](CC(C)C)NC(=O)[C@H](C)NC(=O)[C@H](CC(C)C)NC(=O)[C@@H](N)CCCCN)C(=O)N[C@@H](CCCCN)C(=O)N[C@@H](C)C(=O)N[C@@H](C)C(=O)N[C@@H](CC(C)C)C(=O)N[C@@H](CCCCN)C(=O)N[C@@H](CC(C)C)C(=O)N[C@@H](C)C(N)=O [MAP]		+++	2 µM	2 µM	+++	0.4 (≈ 0.751 µg/mL)	25 µM (≈ 46.9 µg/mL)	3.2 (≈ 6 µg/mL)							
N=C(N)NCCC[C@H](NC(=O)CN)C(=O)N[C@@H](CCCCN)C(=O)N[C@@H](CCCCN)C(=O)N[C@@H](CCCNC(=N)N)C(=O)N[C@@H](CCCNC(=N)N)C(=O)N[C@@H](CCC(N)=O)C(=O)N[C@@H](CCCNC(=N)N)C(=O)N[C@@H](CCCNC(=N)N)C(=O)N[C@@H](CCCNC(=N)N)C(=O)N1CCC[C@H]1C(=O)N1CCC[C@H]1C(=O)N[C@@H](CCC(N)=O)C(=O)O [TAT]		-	> 20 μM and > 20 ^e μM	>>100 μM	-	125 (≈ 215 µg/mL)	>500 ^e μM	500 (≈ 860 µg/mL)					hardly any hemolytic activity	at least 125 µM	did not show any hemolytic activity
CC[C@H](C)[C@H](NC(=O)[C@H](CCCCN)NC(=O)[C@H](CCCCN)NC(=O)[C@H](Cc1ccccc1)NC(=O)[C@H](CC(C)C)NC(=O)[C@H](CCCCN)NC(=O)[C@@H](N)CCCCN)C(=O)N[C@@H](CC(C)C)C(=O)N[C@@H](CCCCN)C(=O)N[C@@H](Cc1ccc(O)cc1)C(=O)N[C@@H](CC(C)C)C(N)=O [BP100]		+++	4 µM	45 µM	++	3.2 (≈ 4.55 µg/mL)	6.3 µM (≈ 8.95 µg/mL)	6.3 (≈ 8.95 µg/mL)							
